Experimental data published in ChEMBL document CHEMBL5465560, “Selectivity Literature for EUbOPEN Chemogenomic Library” (2024).

Tests used:
[1] = biological target: Protein arginine N-methyltransferase 1 (Homo sapiens, UniProt Q99873); details: at 10 µM
[2] = biological target: Insulin-like growth factor 1 receptor (Homo sapiens, UniProt P08069); experiment: Selectivity interaction (Kinase panel (Invitrogen)) EUB0000639a IGF1R; details: at 200 nM
[3] = biological target: T1, Dual specificity mitogen-activated protein kinase kinase 3 (Homo sapiens) (UniProt P46734); experiment: Selectivity interaction (ActivX KiNativ screen (kinase selectivity in THP-1 cell lysates)) EUB0000639a MAP2K3; type: subcellular; details: lysate
T1 sequence (whole entry): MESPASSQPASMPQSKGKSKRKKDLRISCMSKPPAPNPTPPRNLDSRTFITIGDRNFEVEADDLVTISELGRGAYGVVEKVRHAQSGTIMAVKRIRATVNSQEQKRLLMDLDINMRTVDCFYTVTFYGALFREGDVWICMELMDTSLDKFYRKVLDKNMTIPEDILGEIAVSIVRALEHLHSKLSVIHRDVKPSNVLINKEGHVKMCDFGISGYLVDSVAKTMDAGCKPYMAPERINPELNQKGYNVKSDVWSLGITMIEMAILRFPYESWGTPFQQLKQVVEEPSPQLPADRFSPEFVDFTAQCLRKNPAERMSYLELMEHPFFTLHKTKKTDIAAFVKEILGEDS

[4] = biological target: Serine/threonine-protein kinase tousled-like 2 (Homo sapiens) (UniProt Q86UE8); experiment: Selectivity interaction (KinomeScan (DiscoverX)) EUB0000595a TLK2; details: at 10 µM
[5] = biological target: Serine/threonine-protein kinase SIK1 (Homo sapiens) (UniProt P57059); experiment: Selectivity interaction (KinomeScan (DiscoverX)) EUB0000092b SIK1; details: at 10 µM
[6] = biological target: Receptor tyrosine-protein kinase erbB-3 (Homo sapiens) (UniProt P21860); experiment: Selectivity interaction (KinomeScan (DiscoverX)) EUB0000045b ERBB3
[7] = biological target: T2, Homeodomain-interacting protein kinase 4 (Homo sapiens) (UniProt Q8NE63); details: at 10 µM
T2 sequence (whole entry): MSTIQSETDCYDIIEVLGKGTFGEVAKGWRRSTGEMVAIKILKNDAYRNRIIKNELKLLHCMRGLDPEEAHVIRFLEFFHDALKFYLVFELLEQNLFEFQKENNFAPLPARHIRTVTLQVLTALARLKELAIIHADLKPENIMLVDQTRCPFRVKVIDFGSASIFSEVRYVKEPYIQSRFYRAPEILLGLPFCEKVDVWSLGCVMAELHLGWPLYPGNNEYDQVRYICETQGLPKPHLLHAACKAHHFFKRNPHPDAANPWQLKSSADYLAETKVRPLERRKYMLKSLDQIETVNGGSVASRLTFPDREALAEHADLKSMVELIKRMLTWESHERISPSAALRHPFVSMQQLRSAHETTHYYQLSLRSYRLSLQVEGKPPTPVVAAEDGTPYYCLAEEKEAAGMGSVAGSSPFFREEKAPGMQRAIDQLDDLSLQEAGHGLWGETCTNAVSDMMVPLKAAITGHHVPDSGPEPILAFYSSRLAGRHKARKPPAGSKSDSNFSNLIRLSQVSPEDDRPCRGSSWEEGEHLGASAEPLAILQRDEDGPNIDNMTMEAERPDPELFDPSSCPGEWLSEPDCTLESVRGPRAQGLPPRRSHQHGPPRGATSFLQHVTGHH

[8] = biological target: T3, Dual specificity mitogen-activated protein kinase kinase 5 (Homo sapiens) (UniProt Q13163); experiment: Selectivity interaction (KinomeScan (DiscoverX)) EUB0001619a MAP2K5; details: at 1 µM
T3 sequence (whole entry): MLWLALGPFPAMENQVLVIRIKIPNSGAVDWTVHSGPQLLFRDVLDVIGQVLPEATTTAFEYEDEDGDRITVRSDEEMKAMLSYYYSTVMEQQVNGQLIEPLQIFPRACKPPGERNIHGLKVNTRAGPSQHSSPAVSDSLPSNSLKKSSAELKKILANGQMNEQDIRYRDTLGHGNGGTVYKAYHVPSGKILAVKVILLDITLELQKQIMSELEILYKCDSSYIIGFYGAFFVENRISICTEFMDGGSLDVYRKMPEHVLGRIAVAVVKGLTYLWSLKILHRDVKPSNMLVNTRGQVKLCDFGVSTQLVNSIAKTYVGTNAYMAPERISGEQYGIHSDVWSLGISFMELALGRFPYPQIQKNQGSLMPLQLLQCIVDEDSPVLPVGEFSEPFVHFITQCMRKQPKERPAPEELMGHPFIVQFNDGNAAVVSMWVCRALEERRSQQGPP

[9] = biological target: Serine/threonine-protein kinase 25 (Homo sapiens) (UniProt O00506); experiment: Selectivity interaction (KinomeScan (DiscoverX)) EUB0001619a STK25; details: at 1 µM
[10] = biological target: T4, Dual specificity tyrosine-phosphorylation-regulated kinase 3 (Homo sapiens) (UniProt O43781); experiment: Selectivity interaction (Kinase panel (Z-LYTE Assay)) EUB0001632a DYRK3; details: at 10 µM
T4 sequence (whole entry): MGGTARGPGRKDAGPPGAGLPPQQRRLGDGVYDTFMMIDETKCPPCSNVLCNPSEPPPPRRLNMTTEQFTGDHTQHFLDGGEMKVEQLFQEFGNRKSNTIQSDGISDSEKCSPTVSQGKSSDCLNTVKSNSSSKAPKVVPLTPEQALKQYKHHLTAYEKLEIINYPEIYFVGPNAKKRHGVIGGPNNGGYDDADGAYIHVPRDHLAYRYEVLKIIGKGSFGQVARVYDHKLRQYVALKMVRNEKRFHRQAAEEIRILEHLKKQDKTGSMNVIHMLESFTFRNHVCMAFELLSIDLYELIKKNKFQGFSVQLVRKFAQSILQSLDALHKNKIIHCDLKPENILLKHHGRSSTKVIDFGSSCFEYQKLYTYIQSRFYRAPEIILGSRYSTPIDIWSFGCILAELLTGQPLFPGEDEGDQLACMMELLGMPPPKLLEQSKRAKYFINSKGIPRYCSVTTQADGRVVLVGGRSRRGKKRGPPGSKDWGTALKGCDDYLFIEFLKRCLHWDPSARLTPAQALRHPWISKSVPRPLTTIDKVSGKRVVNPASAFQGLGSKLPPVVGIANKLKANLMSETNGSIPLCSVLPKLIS

Chain of Receptor tyrosine-protein kinase erbB-3 (Homo sapiens) (P21860 whole entry): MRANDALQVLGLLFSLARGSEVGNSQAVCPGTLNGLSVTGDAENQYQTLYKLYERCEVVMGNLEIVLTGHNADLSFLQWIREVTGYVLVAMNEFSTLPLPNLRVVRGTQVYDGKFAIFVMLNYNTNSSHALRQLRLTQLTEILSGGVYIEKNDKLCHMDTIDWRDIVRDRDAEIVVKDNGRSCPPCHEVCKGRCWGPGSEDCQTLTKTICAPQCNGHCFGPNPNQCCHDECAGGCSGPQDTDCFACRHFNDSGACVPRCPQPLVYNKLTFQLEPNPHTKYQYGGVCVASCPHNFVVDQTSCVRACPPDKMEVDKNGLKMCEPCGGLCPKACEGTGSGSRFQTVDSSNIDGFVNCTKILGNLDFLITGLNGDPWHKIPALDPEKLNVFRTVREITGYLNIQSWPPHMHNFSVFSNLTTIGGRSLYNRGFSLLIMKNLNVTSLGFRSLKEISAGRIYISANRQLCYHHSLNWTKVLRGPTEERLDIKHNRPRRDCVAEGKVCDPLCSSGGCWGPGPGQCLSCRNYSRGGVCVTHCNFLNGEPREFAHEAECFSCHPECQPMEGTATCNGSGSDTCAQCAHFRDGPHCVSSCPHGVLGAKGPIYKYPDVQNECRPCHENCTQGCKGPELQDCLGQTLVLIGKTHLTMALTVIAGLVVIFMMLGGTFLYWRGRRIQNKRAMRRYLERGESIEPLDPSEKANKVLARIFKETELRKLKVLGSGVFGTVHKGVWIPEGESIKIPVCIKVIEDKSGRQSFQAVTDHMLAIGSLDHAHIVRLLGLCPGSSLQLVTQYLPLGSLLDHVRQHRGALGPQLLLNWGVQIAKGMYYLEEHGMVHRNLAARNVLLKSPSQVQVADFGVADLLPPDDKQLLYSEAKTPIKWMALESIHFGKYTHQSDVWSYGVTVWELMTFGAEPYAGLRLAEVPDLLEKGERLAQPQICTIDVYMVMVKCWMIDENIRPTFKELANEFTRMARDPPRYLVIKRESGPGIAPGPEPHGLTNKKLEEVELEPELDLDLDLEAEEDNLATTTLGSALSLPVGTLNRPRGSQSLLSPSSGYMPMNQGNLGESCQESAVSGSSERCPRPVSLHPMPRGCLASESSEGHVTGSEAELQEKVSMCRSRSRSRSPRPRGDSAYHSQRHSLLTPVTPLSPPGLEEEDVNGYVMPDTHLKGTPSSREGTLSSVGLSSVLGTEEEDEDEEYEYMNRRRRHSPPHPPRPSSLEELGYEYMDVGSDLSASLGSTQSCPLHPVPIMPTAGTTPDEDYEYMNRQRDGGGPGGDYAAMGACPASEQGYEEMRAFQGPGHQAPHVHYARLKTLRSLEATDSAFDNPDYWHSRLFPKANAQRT
Chain of Insulin-like growth factor 1 receptor (P08069 31-736 limits assumed): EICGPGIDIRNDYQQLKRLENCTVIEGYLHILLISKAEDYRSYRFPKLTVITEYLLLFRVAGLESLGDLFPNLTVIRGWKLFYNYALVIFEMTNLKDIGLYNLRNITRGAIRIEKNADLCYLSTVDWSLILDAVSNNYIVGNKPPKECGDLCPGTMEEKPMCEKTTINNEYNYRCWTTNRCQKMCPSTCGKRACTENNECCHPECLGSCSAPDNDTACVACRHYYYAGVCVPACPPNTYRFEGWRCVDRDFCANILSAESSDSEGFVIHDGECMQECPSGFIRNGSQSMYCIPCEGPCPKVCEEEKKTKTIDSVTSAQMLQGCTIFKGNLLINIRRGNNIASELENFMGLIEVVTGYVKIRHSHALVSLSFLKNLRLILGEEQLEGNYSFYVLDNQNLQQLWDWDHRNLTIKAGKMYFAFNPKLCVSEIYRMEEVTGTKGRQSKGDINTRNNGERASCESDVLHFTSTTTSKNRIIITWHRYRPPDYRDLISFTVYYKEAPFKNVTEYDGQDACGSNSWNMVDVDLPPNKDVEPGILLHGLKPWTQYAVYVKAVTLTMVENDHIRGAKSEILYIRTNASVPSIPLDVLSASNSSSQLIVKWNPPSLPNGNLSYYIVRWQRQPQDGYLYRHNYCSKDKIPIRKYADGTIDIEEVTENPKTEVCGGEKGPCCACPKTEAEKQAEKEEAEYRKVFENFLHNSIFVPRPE
Chain of Insulin-like growth factor 1 receptor (P08069 741-1367 limits assumed): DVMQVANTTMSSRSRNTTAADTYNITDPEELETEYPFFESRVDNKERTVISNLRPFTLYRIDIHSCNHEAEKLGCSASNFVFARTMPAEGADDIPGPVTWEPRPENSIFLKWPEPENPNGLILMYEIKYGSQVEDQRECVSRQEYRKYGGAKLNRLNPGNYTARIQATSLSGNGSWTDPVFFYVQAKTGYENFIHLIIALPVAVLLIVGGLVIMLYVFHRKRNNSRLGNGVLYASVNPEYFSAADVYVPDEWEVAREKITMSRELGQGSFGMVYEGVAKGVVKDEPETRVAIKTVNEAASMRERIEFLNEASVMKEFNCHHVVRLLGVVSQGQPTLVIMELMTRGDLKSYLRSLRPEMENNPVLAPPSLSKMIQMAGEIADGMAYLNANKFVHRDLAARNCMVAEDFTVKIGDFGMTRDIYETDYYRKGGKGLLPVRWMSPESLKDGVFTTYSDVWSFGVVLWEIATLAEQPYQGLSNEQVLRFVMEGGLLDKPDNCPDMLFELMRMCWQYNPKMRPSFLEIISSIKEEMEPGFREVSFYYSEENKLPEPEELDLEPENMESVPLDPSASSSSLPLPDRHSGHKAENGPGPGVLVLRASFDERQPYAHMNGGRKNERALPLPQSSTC
Chain of Serine/threonine-protein kinase SIK1 (Homo sapiens) (P57059 whole entry): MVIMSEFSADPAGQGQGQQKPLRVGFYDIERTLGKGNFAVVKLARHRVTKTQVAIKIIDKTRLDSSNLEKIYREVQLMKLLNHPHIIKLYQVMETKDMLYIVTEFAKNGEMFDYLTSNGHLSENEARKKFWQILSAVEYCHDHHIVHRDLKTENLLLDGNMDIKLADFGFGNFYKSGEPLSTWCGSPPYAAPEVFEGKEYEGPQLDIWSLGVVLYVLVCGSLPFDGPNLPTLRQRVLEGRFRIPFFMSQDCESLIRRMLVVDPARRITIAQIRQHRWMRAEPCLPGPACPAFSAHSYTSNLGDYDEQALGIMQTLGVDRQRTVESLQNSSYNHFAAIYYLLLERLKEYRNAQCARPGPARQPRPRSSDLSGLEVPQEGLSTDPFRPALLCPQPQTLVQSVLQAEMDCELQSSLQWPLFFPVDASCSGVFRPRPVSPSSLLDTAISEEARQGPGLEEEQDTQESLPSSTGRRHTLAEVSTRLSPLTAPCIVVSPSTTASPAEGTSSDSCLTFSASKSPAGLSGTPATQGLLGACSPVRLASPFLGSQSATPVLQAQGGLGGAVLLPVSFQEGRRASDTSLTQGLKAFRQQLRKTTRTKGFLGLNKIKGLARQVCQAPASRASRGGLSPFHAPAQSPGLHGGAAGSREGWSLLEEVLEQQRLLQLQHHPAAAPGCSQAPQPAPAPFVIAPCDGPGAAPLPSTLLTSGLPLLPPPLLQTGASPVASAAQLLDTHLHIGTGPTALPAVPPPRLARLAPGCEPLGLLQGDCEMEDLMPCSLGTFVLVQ
Chain of Serine/threonine-protein kinase tousled-like 2 (Homo sapiens) (Q86UE8 whole entry, looked up): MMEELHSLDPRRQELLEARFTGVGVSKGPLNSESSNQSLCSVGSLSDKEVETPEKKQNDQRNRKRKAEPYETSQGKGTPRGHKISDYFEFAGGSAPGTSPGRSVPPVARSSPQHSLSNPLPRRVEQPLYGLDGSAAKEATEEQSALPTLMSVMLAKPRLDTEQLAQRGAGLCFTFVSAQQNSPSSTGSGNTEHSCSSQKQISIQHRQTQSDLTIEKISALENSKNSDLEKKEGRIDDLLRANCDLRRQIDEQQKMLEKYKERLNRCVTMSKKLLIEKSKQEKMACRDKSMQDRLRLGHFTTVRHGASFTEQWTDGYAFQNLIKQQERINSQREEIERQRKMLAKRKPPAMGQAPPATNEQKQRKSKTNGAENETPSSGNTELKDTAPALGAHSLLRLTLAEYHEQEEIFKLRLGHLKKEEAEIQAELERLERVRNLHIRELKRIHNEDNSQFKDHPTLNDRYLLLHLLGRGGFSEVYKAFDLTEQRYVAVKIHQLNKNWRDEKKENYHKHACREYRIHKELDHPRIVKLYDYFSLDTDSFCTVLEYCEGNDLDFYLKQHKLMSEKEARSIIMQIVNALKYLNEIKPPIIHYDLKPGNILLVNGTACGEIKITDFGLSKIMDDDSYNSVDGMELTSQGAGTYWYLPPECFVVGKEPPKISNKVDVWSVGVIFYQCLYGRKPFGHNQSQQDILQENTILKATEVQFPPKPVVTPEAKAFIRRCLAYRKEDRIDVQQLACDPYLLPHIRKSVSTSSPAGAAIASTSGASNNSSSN
Chain of Serine/threonine-protein kinase 25 (Homo sapiens) (O00506 whole entry, looked up): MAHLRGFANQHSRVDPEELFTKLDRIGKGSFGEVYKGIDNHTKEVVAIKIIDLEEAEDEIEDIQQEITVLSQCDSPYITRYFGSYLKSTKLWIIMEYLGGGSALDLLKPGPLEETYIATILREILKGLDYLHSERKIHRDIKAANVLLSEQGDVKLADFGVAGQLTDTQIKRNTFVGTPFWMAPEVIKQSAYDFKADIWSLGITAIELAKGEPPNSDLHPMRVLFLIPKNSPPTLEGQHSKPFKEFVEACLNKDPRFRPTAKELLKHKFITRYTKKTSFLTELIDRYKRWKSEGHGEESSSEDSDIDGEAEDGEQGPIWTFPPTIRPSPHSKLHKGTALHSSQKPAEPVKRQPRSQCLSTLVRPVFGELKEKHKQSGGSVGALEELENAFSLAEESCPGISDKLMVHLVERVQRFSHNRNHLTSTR
Chain of Protein arginine N-methyltransferase 1 (Q99873 whole entry, looked up): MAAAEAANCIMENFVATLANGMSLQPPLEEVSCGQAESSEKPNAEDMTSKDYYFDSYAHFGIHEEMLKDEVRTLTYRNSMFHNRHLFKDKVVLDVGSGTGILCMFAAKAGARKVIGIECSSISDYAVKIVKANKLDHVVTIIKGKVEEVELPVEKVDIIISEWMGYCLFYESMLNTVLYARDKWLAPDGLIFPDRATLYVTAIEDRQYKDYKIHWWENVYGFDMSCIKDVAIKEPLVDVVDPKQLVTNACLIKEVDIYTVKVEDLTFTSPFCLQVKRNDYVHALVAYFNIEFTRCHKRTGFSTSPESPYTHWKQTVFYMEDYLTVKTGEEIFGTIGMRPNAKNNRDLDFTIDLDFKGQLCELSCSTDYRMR

SMILES: CNCCN1CCC(c2cc(CN(C)C(=O)c3cccc(Oc4ccccc4)c3)ccn2)CC1
- % activity [1]: > 90%

SMILES: CC[C@@H]1[C@H](F)C(=O)N[C@@H]1COc1nccc2cc(C(N)=O)c(OC)cc12 [ZIMLOVISERTIB]
- % of inhibition [2]: 7.84%
- % of inhibition ([3]; at 0.01 µM): 15.1%
- % of inhibition ([3]; at 0.04 µM): -11.7%
- % of inhibition ([3]; at 0.2 µM): -29.6%
- % of inhibition ([3]; at 1 µM): -46.2%
- % of inhibition ([3]; at 5 µM): -40.1%

SMILES: COCC(=O)NC/C=C/c1ccc2ncnc(Nc3ccc(Oc4ccc(C)nc4)c(C)c3)c2c1 [CP-724714]
- % of control [4]: 100%

SMILES: CCC(=O)N1CCN(c2ccc(-n3c(=O)ccc4cnc5ccc(-c6cnc7ccccc7c6)cc5c43)cc2C(F)(F)F)CC1
- % of control [5]: 80%

SMILES: C=CC(=O)Nc1cc(-n2c(=O)ccc3cnc4ccc(-c5ccc(NS(C)(=O)=O)cc5)cc4c32)ccc1C
- % of control ([6]; at 1 µM): 100%
- % of control ([6]; at 10 µM): 100%

SMILES: Cc1cc([C@@H](C)Nc2ccccc2C(=O)O)c2nc(N3CCOCC3)cc(=O)n2c1 [AZD-6482]
- % of control [7]: 100%

SMILES: N#Cc1cccc(-c2c[nH]c3ncnc(N4CCOCC4)c23)c1
- % of control [8]: 14%
- % of control [9]: 28%

SMILES: Cn1cc(-n2cnc3c(NCc4nc5cc(Cl)c(Cl)cc5[nH]4)nc(N4CCOCC4)nc32)cn1
- % of control [10]: 10.6%
